Test results reported in patent US20140179681A1, “METHODS AND COMPOSITIONS OF TARGETED DRUG DEVELOPMENT” (priority 2010, published 2014).

Target: T1, EGFR (Homo sapiens, UniProt P00533)
T1 construct: host or cells: A431
Assay: EGFR in-cell Western (ICW) screening protocol (EGFR inhibition assay)
Type: cell-based
Conditions: % Inhibition of EGF dependent EGFR phosphorylation in A431 cells, compound 125 μM in assay
How it was run: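 Serum-starved A431 cells (2 h) were pretreated with compound for 4 h at 37° C, then stimulated with EGF (10 ng/ml final, or 6.6 or 12.5 ng/ml in some runs) for 10 min. After formaldehyde fixation, phospho-EGFR (Tyr1173, or Tyr1045 in some runs) and total EGFR were detected by in-cell Western immunostaining.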

T1 sequence (P00533 25-1210): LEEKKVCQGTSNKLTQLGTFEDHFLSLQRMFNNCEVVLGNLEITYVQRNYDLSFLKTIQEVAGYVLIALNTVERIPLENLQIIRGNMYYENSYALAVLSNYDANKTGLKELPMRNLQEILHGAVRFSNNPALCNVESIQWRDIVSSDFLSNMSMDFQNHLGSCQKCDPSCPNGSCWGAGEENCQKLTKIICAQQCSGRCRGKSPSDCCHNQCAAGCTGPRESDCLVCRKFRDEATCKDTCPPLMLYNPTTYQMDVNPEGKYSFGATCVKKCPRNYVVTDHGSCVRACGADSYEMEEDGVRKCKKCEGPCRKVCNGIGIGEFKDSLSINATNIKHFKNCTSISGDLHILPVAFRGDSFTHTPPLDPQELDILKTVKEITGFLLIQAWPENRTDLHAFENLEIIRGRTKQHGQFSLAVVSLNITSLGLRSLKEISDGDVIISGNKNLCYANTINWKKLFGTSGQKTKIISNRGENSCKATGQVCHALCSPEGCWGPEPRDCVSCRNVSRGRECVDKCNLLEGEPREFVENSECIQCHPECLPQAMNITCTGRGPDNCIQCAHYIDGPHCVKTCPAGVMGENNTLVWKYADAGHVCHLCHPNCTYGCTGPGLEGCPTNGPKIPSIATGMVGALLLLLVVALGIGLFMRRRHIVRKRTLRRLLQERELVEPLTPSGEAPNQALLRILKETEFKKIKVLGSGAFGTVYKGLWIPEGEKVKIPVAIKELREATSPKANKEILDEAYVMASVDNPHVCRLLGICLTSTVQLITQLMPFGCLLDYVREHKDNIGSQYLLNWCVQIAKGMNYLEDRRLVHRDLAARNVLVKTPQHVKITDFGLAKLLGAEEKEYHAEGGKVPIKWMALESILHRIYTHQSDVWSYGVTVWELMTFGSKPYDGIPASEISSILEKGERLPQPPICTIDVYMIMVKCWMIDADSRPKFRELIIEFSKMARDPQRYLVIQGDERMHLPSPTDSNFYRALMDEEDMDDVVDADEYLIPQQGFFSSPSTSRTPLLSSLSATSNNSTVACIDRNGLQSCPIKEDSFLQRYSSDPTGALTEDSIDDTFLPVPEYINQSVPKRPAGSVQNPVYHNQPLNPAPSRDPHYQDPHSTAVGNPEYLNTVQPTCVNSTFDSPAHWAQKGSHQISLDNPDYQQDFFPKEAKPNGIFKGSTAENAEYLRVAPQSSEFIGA

Row | ICW Screen (Table 11) | ICW assay (Table 10) | SMILES
1 | 65.9 | – | CCc1cc2c(CN3CCN(Cc4ccc5c(c4)OCO5)CC3)cc(=O)oc2cc1O [AD4-1734]
2 | – | 112.858 | Cc1cc(C)cc(NS(=O)(=O)c2ccc(NC(=S)Nc3ccccc3)cc2)c1 [AD4-11091]
